Measurements taken from patent US10125135B2, “Chemical compounds” (AstraZeneca AB, priority 2016, dated 2018).

target: ERα receptor in MCF-7 human ductal carcinoma breast cell line (Homo sapiens (Human), UniProt P03372); assay: MCF-7 ER down regulation assay (immuno-fluorescence); type: cell-based; details: MCF-7 cells, 18-22 hours incubation; read-out: ER down regulation IC50 value
Experimental: MCF-7 ER Down Regulation Assay
The ability of compounds to down-regulate Estrogen Receptor (ER) numbers was assessed in a cell based immuno-fluorescence assay using the MCF-7 human ductal carcinoma breast cell line. MCF-7 cells were revived directly from a cryovial (approx 5×10^6 cells) in Assay Medium (phenol red free Dulbecco's Modified Eagle's medium (DMEM) (Sigma D5921) containing 2mM L-Glutamine and 5% (v/v) Charcoal/Dextran treated foetal calf serum. Cells were syringed once using a sterile 18 G×1.5 inch (1.2×40 mm) broad gauge needle and cell density was measured using a Coulter Counter (Beckman). Cells were further diluted in Assay Medium to a density of 3.75×10^4 cells per mL and 40 μL per well added to transparent bottomed, black, tissue culture treated 384 well plates (Costar, No. 3712) using a Thermo Scientific Matrix WellMate or Thermo Multidrop. Following cell seeding, plates were incubated overnight at 37° C., 5% CO2 (Liconic carousel incubator). Test data was generated using the LabCyte Echo™ model 555 compound reformatter which is part of an automated workcell (Integrated Echo 2 workcell). 10 mM compound stock solutions of the test compounds were used to generate a 384 well compound dosing plate (Labcyte P-05525-CV1). […] 40 μΛ of DMSO added to wells in row P on the source plate allow for DMSO normalisation across the dose range. To dose the control wells 40 μL of DMSO was added to row O1 and 40 μL of 100 μM fulvestrant in DMSO was added to row O3 on the compound source plate. […] Compounds were dispensed onto the cell plates with a compound source plate prepared as above producing a 12 pt duplicate 3 μM to 3 pM dose range with 3 fold dilutions and one final 10 fold dilution using the Integrated Echo 2 workcell. […] Cells were fixed at room temperature for 20 mins before being washed two times with 250 μL PBS/Proclin (PBS with a Biocide preservative) using a BioTek platewasher, 40 μL of PBS/Proclin was then added to all wells and the plates stored at 4° C. The fixing method described above was carried out on the Integrated Echo 2 workcell. Immunostaining was performed using an automated AutoElisa workcell. The PBS/Proclin was aspirated from all wells and the cells permeabilised with 40 μL PBS containing 0.5% Tween™ 20 (v/v) for 1 hour at room temperature. The plates were washed three times in 250 μL of PBS/0.05% (v/v) Tween 20 with Proclin (PBST with a Biocide preservative) and then 20 μL of ERα (SP1) Rabbit monoclonal antibody (Thermofisher) 1:1000 in PBS/Tween™/3% (w/v) Bovine Serum Albumin was added. The plates were incubated overnight at 4° C. (Liconic carousel incubator) and then washed three times in 250 μL of PBS/0.05% (v/v) Tween™ 20 with Proclin (PBST). The plates were then incubated with 20 μL/well of a goat anti-rabbit IgG AlexaFluor 594 or goat anti-rabbit AlexaFluor 488 antibody (Molecular Probes) with Hoechst at 1:5000 in PBS/Tween™/3% (w/v) Bovine Serum Albumin for lhour at room temperature. The plates were then washed three times in 250 μL of PBS/0.05% (v/v) Tween™ 20 with Proclin (PBST with a Biocide preservative). 20 μL of PBS was added to each well and the plates covered with a black plate seal and stored at 4° C. before being read. Plates were read using a Cellomics Arrayscan reading the 594 nm (24 hr time point) or 488 nm (5 hr timepoint) fluorescence to measure the ERα receptor level in each well. The mean total intensity was normalized for cell number giving the total intensity per cell.

Chain of ERα receptor in MCF-7 human ductal carcinoma breast cell line (P03372 whole entry): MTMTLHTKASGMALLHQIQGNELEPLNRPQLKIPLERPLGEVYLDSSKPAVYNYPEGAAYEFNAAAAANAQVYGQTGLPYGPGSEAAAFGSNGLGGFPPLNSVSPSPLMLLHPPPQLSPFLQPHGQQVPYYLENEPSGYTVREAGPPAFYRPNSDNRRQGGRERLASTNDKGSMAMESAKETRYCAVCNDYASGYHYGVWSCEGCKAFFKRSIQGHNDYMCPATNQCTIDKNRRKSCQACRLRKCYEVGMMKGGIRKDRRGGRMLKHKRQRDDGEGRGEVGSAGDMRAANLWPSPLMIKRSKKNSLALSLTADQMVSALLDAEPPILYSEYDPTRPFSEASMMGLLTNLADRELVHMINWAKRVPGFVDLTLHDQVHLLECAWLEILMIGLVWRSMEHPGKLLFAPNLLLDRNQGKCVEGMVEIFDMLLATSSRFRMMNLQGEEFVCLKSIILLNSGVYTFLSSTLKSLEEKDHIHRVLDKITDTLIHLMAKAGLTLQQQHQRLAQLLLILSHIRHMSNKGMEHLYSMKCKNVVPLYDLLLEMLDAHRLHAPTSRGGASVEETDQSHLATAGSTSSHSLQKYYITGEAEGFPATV

With `COc1cc(OCCN2CC(CF)C2)cc(F)c1[C@@H]1c2ccc3[nH]ncc3c2C[C@@H](C)N1CC(C)(F)F` [Example 25, (6S,8R)-7-(2,2-difluoropropyl)-6-(2-fluoro-4-(2-(3-(fluoromethyl)azetidin-1-yl)ethoxy)-6-methoxyphenyl)-8-methyl-6,7,8,9-tetrahydro-3H-pyrazolo[4,3-f]isoquinoline] as the molecule, how does the DC50 read?
Its DC50 is 0.11 nM.

With `COc1cc(OCCN2CC(CF)C2)cc(F)c1[C@@H]1c2ccc3[nH]ncc3c2C[C@@H](C)N1CC(F)(F)CO` [Example 26, 2,2-difluoro-3-((6S,8R)-6-(2-fluoro-4-(2-(3-(fluoromethyl)azetidin-1-yl)ethoxy)-6-methoxyphenyl)-8-methyl-8,9-dihydro-3H-pyrazolo[4,3-f]isoquinolin-7(6H)-yl)propan-1-ol] as the molecule, how does the DC50 read?
Its DC50 is 0.13 nM.

`COc1cc(OCCN2CC(CF)C2)cc(F)c1[C@@H]1c2ccc3[nH]ncc3c2C[C@@H](C)N1CC(F)(F)CF` [Example 27, (6S,8R)-6-(2-fluoro-4-(2-(3-(fluoromethyl)azetidin-1-yl)ethoxy)-6-methoxyphenyl)-8-methyl-7-(2,2,3-trifluoropropyl)-6,7,8,9-tetrahydro-3H-pyrazolo[4,3-f]isoquinoline] was tested. Which DC50 did it give?
Its DC50 is 0.059 nM.

`CC(C)CN1C(c2c(F)cc(OCCN3CC(CF)C3)cc2F)c2ccc3[nH]ncc3c2CC1(C)C` (centres unmarked) [Example 36, 6-(2,6-difluoro-4-(2-(3-(fluoromethyl)azetidin-1-yl)ethoxy)phenyl)-7-isobutyl-8,8-dimethyl-6,7,8,9-tetrahydro-3H-pyrazolo[4,3-f]isoquinoline] was tested. Which DC50 did it give?
The DC50 was 0.25 nM.

`CC(C)(F)CN1C(c2c(F)cc(OCCN3CC(CF)C3)cc2F)c2ccc3[nH]ncc3c2CC1(C)C` (centres unmarked) [Example 37, 6-(2,6-difluoro-4-(2-(3-(fluoromethyl)azetidin-1-yl)ethoxy)phenyl)-7-(2-fluoro-2-methylpropyl)-8,8-dimethyl-6,7,8,9-tetrahydro-3H-pyrazolo[4,3-f]isoquinoline] was tested. Which DC50 did it give?
Its DC50 is 0.16 nM.

How did the DC50 turn out when `C[C@@H]1Cc2c(ccc3[nH]ncc23)[C@@H](c2ccc(OCCN3CC(CF)C3)cc2C#N)N1CC1(F)CC1` [Example 39, 2-((6S,8R)-7-((1-fluorocyclopropyl)methyl)-8-methyl-6,7,8,9-tetrahydro-3H-pyrazolo[4,3-f]isoquinolin-6-yl)-5-(2-(3-(fluoromethyl)azetidin-1-yl)ethoxy)benzonitrile] was run?
Its DC50 is 0.17 nM.

Which DC50 does the source give for `C[C@@H]1Cc2c(ccc3[nH]ncc23)[C@@H](c2ccc(OCCN3CC(CF)C3)cn2)N1CC(C)(F)F` [Example 41, (6S,8R)-7-(2,2-difluoropropyl)-6-(5-(2-(3-(fluoromethyl)azetidin-1-yl)ethoxy)pyridin-2-yl)-8-methyl-6,7,8,9-tetrahydro-3H-pyrazolo[4,3-f]isoquinoline] here?
The DC50 was 0.29 nM.

With `COc1cc(OCCN2CC(CF)C2)ncc1[C@@H]1c2ccc3[nH]ncc3c2C[C@@H](C)N1CC1(F)CC1` [Example 42, (6S,8R)-7-((1-fluorocyclopropyl)methyl)-6-(6-(2-(3-(fluoromethyl)azetidin-1-yl)ethoxy)-4-methoxypyridin-3-yl)-8-methyl-6,7,8,9-tetrahydro-3H-pyrazolo[4,3-f]isoquinoline] as the molecule, how does the DC50 read?
Its DC50 is 0.59 nM.

`C[C@@H]1Cc2c(ccc3[nH]nc(F)c23)[C@@H](c2c(F)cc(OCCN3CC(CF)C3)cc2F)N1CC1(F)COC1` [Example 43, (6S,8R)-6-(2,6-difluoro-4-(2-(3-(fluoromethyl)azetidin-1-yl)ethoxy)phenyl)-1-fluoro-7-((3-fluorooxetan-3-yl)methyl)-8-methyl-6,7,8,9-tetrahydro-3H-pyrazolo[4,3-f]isoquinoline] was tested. Which DC50 did it give?
The DC50 was 0.59 nM.

`CC(C)CN1[C@H](c2c(F)cc(OCCN3CC(CF)C3)cc2F)c2ccc3[nH]nc(F)c3c2C[C@H]1C` [Example 44, (6S,8R)-6-(2,6-difluoro-4-(2-(3-(fluoromethyl)azetidin-1-yl)ethoxy)phenyl)-1-fluoro-7-isobutyl-8-methyl-6,7,8,9-tetrahydro-3H-pyrazolo[4,3-f]isoquinoline] was tested. Which DC50 did it give?
Its DC50 is 0.42 nM.

With `CC1(C)Cc2c(ccc3[nH]ncc23)C(c2ccc(OCCN3CC(CF)C3)cn2)N1CC(F)F` (centres unmarked) [Example 45, 7-(2,2-difluoroethyl)-6-(5-(2-(3-(fluoromethyl)azetidin-1-yl)ethoxy)pyridin-2-yl)-8,8-dimethyl-6,7,8,9-tetrahydro-3H-pyrazolo[4,3-f]isoquinoline] as the molecule, how does the DC50 read?
The DC50 was 3.1 nM.

How did the DC50 turn out when `COc1nc(OCCN2CC(CF)C2)ccc1[C@@H]1c2ccc3[nH]ncc3c2C[C@@H](C)N1CC1(F)CC1` [Example 46, (6S,8R)-7-((1-fluorocyclopropyl)methyl)-6-(6-(2-(3-(fluoromethyl)azetidin-1-yl)ethoxy)-2-methoxypyridin-3-yl)-8-methyl-6,7,8,9-tetrahydro-3H-pyrazolo[4,3-f]isoquinoline] was run?
Its DC50 is 0.14 nM.

Which DC50 does the source give for `C[C@@H]1Cc2c(ccc3[nH]ncc23)[C@@H](c2ncc(OCCN3CC(CF)C3)cc2F)N1CC(F)F` [Example 48, (6S,8R)-7-(2,2-difluoroethyl)-6-(3-fluoro-5-(2-(3-(fluoromethyl)azetidin-1-yl)ethoxy)pyridin-2-yl)-8-methyl-6,7,8,9-tetrahydro-3H-pyrazolo[4,3-f]isoquinoline] here?
Its DC50 is 1.9 nM.

same assay, conditions: MCF-7 cells; >90% unless otherwise stated

Which “% downregulation (in brackets) in ER down regulation assay” value does the source give for `COc1cc(OCCN2CC(OC)C2)ccc1[C@@H]1c2ccc3[nH]ncc3c2C[C@@H](C)N1CC(C)(C)F` [Example 24, (6S,8R)-7-(2-fluoro-2-methylpropyl)-6-(2-methoxy-4-(2-(3-methoxyazetidin-1-yl)ethoxy)phenyl)-8-methyl-6,7,8,9-tetrahydro-3H-pyrazolo[4,3-f]isoquinoline] here?
Its value is less than 50%.
